# Experimental data reported in patent US20120034193A1, “TREATMENT OF NEUROTROPHIC FACTOR MEDIATED DISORDERS” (priority 2009, published 2012).
# Tests used:
# [1] = tested on: Rat cortical neurones; experiment: Neuritogenesis in cortical neurones; assay type: cell-based; conditions: 24 h; for Neurones displaying neurites (%): control 39.35 ± 2.06
# Experimental: Rat cortical neurones were cultured by modification of a previously described method (Singer, et al., Neuroscience Letters, 1996, 212, pp. 13-16). Cells were cultured with sarsasapogenin, smilagenin, vehicle (DMSO 0.25%), GDNF, BDNF or NGF for 24 h. For each group, 15 pictures showing neurones displaying neurites were selected at random in each field, and for each neurone the longest neurite was measured. The neurite number was measured by counting the number of neurones displaying neurites, the number of neurones not displaying neurites and the number of total neurones in each field. Six fields per well were examined.
# The results are shown in Table 15 below, expressed as the number of neurones with neurites per field as a percentage of the total number of neurones per field.
# [2] = tested on: trkB mRNA; experiment: trkB mRNA expression in rat cortical neurones under basal conditions (rt RT-PCR); assay type: cell-based; conditions: 30 nM
# Experimental: Rat cortical neurones were cultured by modification of a method previously described (Singer, et al., Neuroscience Letters, 1996, 212, pp. 13-16). Twelve days after the start of culturing, sarsasapogenin (30 nM), smilagenin (30 nM), 4-methylcatechol (0.5 mM), an inducer of NGF and BDNF release (Saporito et al., Experimental Neurology., 1993, 123, pp. 295-302; Nitta et al., Journal of Pharmacology and Experimental Therapeutics, 1999, 291, pp. 1276-1283) or vehicle (dimethyl sulfoxide, DMSO, 0.25%) were added for 1, 3 or 6 h. After incubation the total messenger ribonucleic acid (mRNA) was quantified using real time reverse transcription-polymerase chain reaction (rt RT-PCR).
# [3] = tested on: rat primary cortical neurones; experiment: Inhibition of induced neurite outgrowth by K252a or PD98059; assay type: cell-based; conditions: 30 nM, 24 h
# Experimental: Cortical neurones were cultured as detailed above. Neurones were exposed to vehicle (DMSO, 0.25%) or K252a (100 nM) for 1 h. After 1 h, vehicle, sarsasapogenin, smilagenin (30 nM) or BDNF (1.85 nM) was added to the medium in the maintained presence of K252a. Following 24 h exposure to sarsasapogenin or smilagenin (30 nM), vehicle (DMSO, 0.25%) or BDNF (1.85 nM), the neurones were washed using phosphate-buffered saline (PBS) and fixed in glutaraldehyde (2.5%) in PBS. Photographs of 40-60 neurones expressing neurites were taken with a camera fixed on a microscope (objective ×20, Nikon). The neurite length was measured by an analysis of the photographs.
# Cortical neurones were cultured as detailed above. Neurones were exposed to vehicle (DMSO, 0.25%) or PD98059 (10 μM) for 1 h. After 1 h, vehicle, smilagenin (30 nM) or BDNF (1.85 nM) was added to the medium in the maintained presence of PD98059. Following 24 h exposure to smilagenin (30 nM), vehicle (DMSO, 0.25%) or BDNF (1.85 nM), the neurones were washed using PBS and fixed in glutaraldehyde (2.5%) in PBS. Photographs of 40-60 neurones expressing neurites were taken with a camera fixed on a microscope (objective ×20, Nikon). The neurite length was measured by an analysis of the photographs.
# [4] = tested on: Rat sensory neurones; experiment: Neuronal survival in sensory neurones; assay type: cell-based, Wistar rat; conditions: 2 days
# Experimental: Rat sensory neurones were obtained from Wistar rat embryos on the 15th day of gestation. Cells were cultured at 37° C. in 5% CO2/95% air atmosphere. Following 2 days of culturing with sarsasapogenin, smilagenin, vehicle (DMSO, 0.25%) or NGF, sensory neurones were rinsed twice with PBS and fixed in paraformaldehyde (4%) in PBS for 30 min at 4° C. Cells were permeabilised with Triton X-100 (0.1%) and non-specific sites were saturated using foetal bovine serum. Prior to staining, cells were incubated for 2 h at room temperature with a mixture of primary antibodies: anti-neurofilament 68 and 200 in PBS containing foetal bovine serum 5%. Prior to washing, slides were demounted and the cells were washed twice with PBS for 5 min, placed in a dark room for 1 h and incubated with a secondary antibody: anti-mouse coupled with cyanine 3 (Cy3; 1/1600) and an anti-rabbit coupled with fluoroisothiocyanate (FITC; 1/200) in PBS containing foetal bovine serum (5%). Slides were washed twice with PBS for 5 min and mounted on coverslips using Mowiol, an antioxidative solution (9% w/v) in glycerol (22%) buffered with Tris/HCl ([…]; pH 8.5). Slides were left overnight at room temperature to harden and stored in light protected conditions. Slides were viewed using a DAPI/FITC/Cy3 triple filter microscope with a ×20 objective. A series of photographs per well were taken at random using a digital camera.
# [5] = tested on: Rat spinal motor neurones; experiment: Neuronal survival and neurite outgrowth in spinal motor neurones; assay type: cell-based; conditions: 3 days
# Experimental: Rat spinal motor neurones were prepared according to a previously described method (Martinou et al, Neuron, 8, 737-744, 1992). Following 3 days of culturing with sarsasapogenin, smilagenin, vehicle (DMSO, 0.25%), Xaliproden, or BDNF, spinal cord motor neurones were washed twice in PBS, fixed in a cold solution of alcohol (95%) and acetic acid (5%) for 5 min and then rinsed 3 times in PBS. Neurones were stained using a monoclonal antibody anti β-tubulin and an anti mouse Immunoglobulin G. These antibodies stained neurone cell bodies (quantifying the neuroprotective effect) and neurites (quantifying the neurotrophic effect). The cell nuclei were stained by a fluorescent marker. After 1 h of incubation, cells were washed 3 times in PBS. […] A series of pictures were taken using a camera controlled by computer software. All the images were taken under the same conditions. Analyses of the number of cells labelled with anti β-tubulin antibodies and of the total number of cells (number of stained nuclei) were performed using LUCIA 6.0 software.
# [6] = tested on: BDNF; experiment: Brain BDNF in aged rats (ELISA); assay type: in vivo, Sprague Dawley (SD) rats; conditions: 18 mg/kg/day oral, 3 months, aged 1.21, young 1.65
# Experimental: Old Sprague Dawley (SD) rats (20 month old) were orally administered sarsasapogenin or smilagenin (18 mg/kg/day) for 3 months. […] Young SD rats (4 month old) were used as healthy positive control. At the end of the treatment the brains removed for quantification of BDNF using an ELISA.
structure (smiles),measurement,setting,value
"C[C@H]1CC[C@@]2(OC1)O[C@H]1C[C@H]3[C@@H]4CC[C@@H]5C[C@@H](O)CC[C@]5(C)[C@H]4CC[C@]3(C)[C@H]1[C@@H]2C [Sarsasapogenin, sarsasapogenin]",Neurite length (% of control),[1]; 3 nM,168.29 ± 6.12 % of control
same,Neurones displaying neurites (%),[1]; 3 nM,52.40 ± 2.63 %
same,Neurite length (% of control),[1]; 30 nM,156.74 ± 4.06 % of control
same,Neurones displaying neurites (%),[1]; 30 nM,57.32 ± 2.54 %
same,"trkB mRNA, % increase above control",[2]; 1 h,No increase
same,"trkB mRNA, % increase above control",[2]; 3 h,33%
same,"trkB mRNA, % increase above control",[2]; 6 h,No increase
same,Neurite length (% of control),[3]; no inhibitor,126.74 ± 5.76^++++ % of control
same,Neurite length (% of control),[3]; with K252a (100 nM),93.12 ± 2.88 % of control
same,Neuronal survival (% of control),[4]; 30 nM,130.83 ± 1.75 % of control
same,Neurite outgrowth (% of control),[5]; 30 nM,129.98 ± 5.47 % of control
same,Neuronal survival (% of control),[5]; 30 nM,119.14 ± 3.33 % of control
same,Neurite outgrowth (% of control),[5]; 100 nM,137.38 ± 7.93 % of control
same,Neuronal survival (% of control),[5]; 100 nM,117.87 ± 3.63 % of control
same,BDNF (ng/g tissue),[6],1.41 ± 0.07 ng/g tissue
"C[C@@H]1CC[C@@]2(OC1)O[C@H]1C[C@H]3[C@@H]4CC[C@@H]5C[C@@H](O)CC[C@]5(C)[C@H]4CC[C@]3(C)[C@H]1[C@@H]2C [Smilagenin, smilagenin]",Neurite length (% of control),[1]; 3 nM,159.03 ± 4.91 % of control
same,Neurones displaying neurites (%),[1]; 3 nM,53.84 ± 2.93 %
same,Neurite length (% of control),[1]; 30 nM,176.71 ± 6.34 % of control
same,Neurones displaying neurites (%),[1]; 30 nM,53.46 ± 2.13 %
same,"trkB mRNA, % increase above control",[2]; 1 h,21%
same,"trkB mRNA, % increase above control",[2]; 3 h,55%
same,"trkB mRNA, % increase above control",[2]; 6 h,No increase
same,Neurite length (% of control),[3]; no inhibitor,146.78 ± 6.75^++++ % of control
same,Neurite length (% of control),[3]; with K252a (100 nM),94.36 ± 3.96 % of control
same,Neurite length (% of control),[3]; with PD98059 (10 μM),120.27 ± 5.80 % of control
same,Neuronal survival (% of control),[4]; 300 nM,124.02 ± 7.64 % of control
same,Neurite outgrowth (% of control),[5]; 30 nM,163.66 ± 9.28 % of control
same,Neuronal survival (% of control),[5]; 30 nM,120.11 ± 2.92 % of control
same,Neurite outgrowth (% of control),[5]; 100 nM,164.75 ± 5.57 % of control
same,Neuronal survival (% of control),[5]; 100 nM,121.21 ± 2.75 % of control
same,BDNF (ng/g tissue),[6],1.34 ± 0.07 ng/g tissue
